Experimental data published in patent publication US20120225947A1, “RETINAL NEUROPROTECTION BY ION CHANNEL BLOCKERS REGULATED BY THE SUR SUBUNIT” (ASSISTANCE PUBLIQUE - HOPITAUX DE PARIS, priority 2009, published 2012).
Read-outs that look alike come from different tables or passages of the source.

Key:
retinal cells [1] = test: NMDA-induced retinal degeneration in the rat, different routes of administration of glibenclamide (Example 2), TUNEL apoptotic cell count; type: in vivo; conditions: for apoptotic cell count in retinas exposed to NMDA-induced degeneration: 18 hours, vs NMDA+DMSO, FIG. 6; for NMDA-induced retinal cell degeneration (apoptotic cells per field): intravitreal NMDA the same day
Source text: (§1) To induce retinal neurodegeneration, the inventors injected N-methyl-D-aspartate (NMDA) into the vitreous body of rats, a recognized model of retinal excitotoxicity in which NMDA, a synthetic glutamate analog, promotes cell death (Crisanti et al., 2006). Present in excess amounts, NMDA hyperactivates neuronal excitatory receptors (NMDA receptors) which become permeable to calcium. Injection of NMDA results in an increase in intracellular calcium levels. Intracellular calcium activates enzymes (phospholipase C, endonucleases, proteases) which degrade cell structures and lead to apoptosis.
Eight-week-old male Wistar rats weighing 320-350 g were used. Rats were maintained in standard animal housing with a 12 hr day/12 hr night cycle at a temperature of 21° C.+1° C. and 55±5% humidity.
Retinal sections were permeabilized by incubation in 0.3% Triton ×100 for 20 minutes at room temperature and then incubated for 1 hour at 37° C. with 50 μL of TUNEL reaction mixture per slide (mixture obtained with 40 μL TUNEL enzyme and 360 μL TUNEL label, solution containing FITC-conjugated nucleotides).
(§2) The amount of cell death by apoptosis and the type of cells concerned were evaluated by the number and intraretinal location of TUNEL-positive nuclei. For each eye, four complete retinal sections taken from the same eye sectors were used for apoptotic cell counts. The total number of apoptotic cells per retina was calculated with reference to the number of fields counted (therefore to retinal length which varies from one area of the retina to another). The mean of these field counts was calculated for an entire retinal section (composed of 7 to 14 fields) and these means, calculated for the different treatment groups, were compared by a nonparametric Mann-Whitney test with significance at p<0.05.
Eight groups of 2 rats were used. Both eyes of each animal received identical treatment. Three routes of administration of glibenclamide were tested: intravitreal route (1 ng or 0.01 ng injected in each eye), oral route (10 mg/kg body weight) and subconjunctival route (1 ng glibenclamide injected in each eye).
The glibenclamide stock solution for the intravitreal and subconjunctival injections was obtained by diluting 4.5 mg glibenclamide in 300 μL of pure DMSO. This solution was then frozen. The glibenclamide solutions at different concentrations used for the intravitreal and subconjunctival injections were obtained by dilution in BSS® buffer (Alcon) immediately before use.
The glibenclamide solutions for oral administration (10 mg/kg) were obtained by dissolving 8 mg glibenclamide in […] DMSO and 1030 μL of water to give a 6 mg/ml glibenclamide solution, which was administered through a syringe.
Group 1: (n=2, 4 eyes), intravitreal injection of 6 μL of solution containing 45 nM NMDA and 1 ng glibenclamide.
Group 2: (n=2, 4 eyes), intravitreal injection of 6 μL of solution containing 45 nM NMDA and 0.01 ng glibenclamide.
Group 4: (n=2, 4 eyes), oral administration of glibenclamide 10 mg/kg body weight and simultaneous intravitreal injection of 6 μL of 45 nM NMDA. A 7% glucose solution was made available ad libitum to avoid possible hypoglycemia.
Group 6: (n=2, 4 eyes), subconjunctival injection of 50 μL of solution containing 1 ng glibenclamide and simultaneous intravitreal injection of 6 μL of 45 nM NMDA.
18 hours after NMDA and glibenclamide administration, rats were euthanized and the eyes were immediately dissected, fixed in 4% paraformaldehyde and 10% sucrose for 4 hours, then immersed overnight at 4° C. in 15% sucrose in phosphate buffer.
Eyes were then embedded in OCT and cryostat-sectioned (10 μm thick). Sections were labeled by the TUNEL method to detect apoptotic cell death.

retinal cells [2] = type: in vivo; conditions: vs BSS, P<0.0001, FIG. 10
Source text: as §1
Eight-week-old male Wistar rats weighing 320-350 g were used. Rats were maintained in standard animal housing with a 12 hr day/12 hr night cycle at a temperature of 21° C.+1° C. and 55±5% humidity. […]
as §2, with “For each eye, four complete retinal sections taken from the same eye sectors were used for apoptotic cell counts.” left out, “p<0.05. […]” for “p<0.05.”

COc1ccc(Cl)cc1C(=O)NCCc1ccc(S(=O)(=O)NC(=O)NC2CCCCC2)cc1 [glibenclamide]
apoptotic cell count in retinas exposed to NMDA-induced degeneration (retinal cells [1]; intravitreal 0.01 ng co-injected with 45 nM NMDA): significant decrease | organization of the retinal cell layers (DAPI labeling) (retinal cells [1]; intravitreal 0.01 ng co-injected with NMDA, FIG. 7C): perfectly conserved | apoptotic cell count in retinas exposed to NMDA-induced degeneration (retinal cells [1]; intravitreal 1 ng co-injected with 45 nM NMDA): significant decrease | organization of the retinal cell layers (DAPI labeling) (retinal cells [1]; intravitreal 1 ng co-injected with NMDA, FIG. 7B): perfectly conserved | NMDA-induced retinal cell degeneration (apoptotic cells per field) (retinal cells [1]; oral 10 mg/kg, vs DMSO per os, P=0.012, FIG. 8): significantly reduced | NMDA-induced retinal cell degeneration (apoptotic cells per field) (retinal cells [1]; subconjunctival 1 ng, vs DMSO SCJ, P=0.0002, FIG. 9): significantly reduced | protection of retinal cells from NMDA-induced degeneration (apoptotic cells per field) (retinal cells [2]; intravitreal 100 ng in BSS 5 days before intravitreal NMDA): significantly protected | protection of retinal cells from NMDA-induced degeneration (apoptotic cells per field) (retinal cells [2]; intravitreal 100 μg in BSS 5 days before intravitreal NMDA): significantly protected
